Patent publication US20100292283A1, “NOVEL PHENYL-ACETAMIDE AND PHENYL-PROPIONAMIDE DERIVATIVES USEFUL AS POTASSIUM CHANNEL MODULATORS” (priority 2007, published 2010)

Biological target: T1, BK channels (Homo sapiens, UniProt Q12791)
T1 construct: expressed in transfected cells; host or cells: Xenopus laevis oocytes
Experiment: BK channel opening activity, two-electrode voltage clamp in Xenopus oocytes
Assay type: cell-based
Conditions: BK channels heterologously expressed in Xenopus oocytes, 0.01-31.6 μM compound
Procedure: In this example the BK channel opening activity of Compound 8 is determined using BK channels heterologously expressed in Xenopus iaevis oocytes.
The electrical current through the BK channel was measured using conventional two-electrode voltage clamp. BK currents were activated by repeating ramp protocols. In brief, the membrane potential was continuously changed from −120 mV to +120 mV within a 2 s period. The threshold for BK activation is approximately +30 mV under control conditions. Compounds were applied for 100 s during which the ramp protocol was repeated 10 times with 10 s intervals. In between the ramp protocols the membrane potential was clamped at −80 mV. The first three compound applications were control blanks where the current level is allowed to stabilize. […]
In order to evaluate the ability of the compounds to shift the BK activation curve towards lower membrane potentials, the BK current was transformed into conductance by using Ohm's law g=I/(Ememb−Erev), where g is the conductance, I is the current, Ememb is the membrane potential and Erev is the reversal potential. […] The control conductance level at a membrane potential of +100 mV was calculated, and the compound effect was evaluated as the potential difference, […], to the membrane potential at which the same conductance level was obtained in the presence of compound. […]

T1 sequence (Q12791 whole entry): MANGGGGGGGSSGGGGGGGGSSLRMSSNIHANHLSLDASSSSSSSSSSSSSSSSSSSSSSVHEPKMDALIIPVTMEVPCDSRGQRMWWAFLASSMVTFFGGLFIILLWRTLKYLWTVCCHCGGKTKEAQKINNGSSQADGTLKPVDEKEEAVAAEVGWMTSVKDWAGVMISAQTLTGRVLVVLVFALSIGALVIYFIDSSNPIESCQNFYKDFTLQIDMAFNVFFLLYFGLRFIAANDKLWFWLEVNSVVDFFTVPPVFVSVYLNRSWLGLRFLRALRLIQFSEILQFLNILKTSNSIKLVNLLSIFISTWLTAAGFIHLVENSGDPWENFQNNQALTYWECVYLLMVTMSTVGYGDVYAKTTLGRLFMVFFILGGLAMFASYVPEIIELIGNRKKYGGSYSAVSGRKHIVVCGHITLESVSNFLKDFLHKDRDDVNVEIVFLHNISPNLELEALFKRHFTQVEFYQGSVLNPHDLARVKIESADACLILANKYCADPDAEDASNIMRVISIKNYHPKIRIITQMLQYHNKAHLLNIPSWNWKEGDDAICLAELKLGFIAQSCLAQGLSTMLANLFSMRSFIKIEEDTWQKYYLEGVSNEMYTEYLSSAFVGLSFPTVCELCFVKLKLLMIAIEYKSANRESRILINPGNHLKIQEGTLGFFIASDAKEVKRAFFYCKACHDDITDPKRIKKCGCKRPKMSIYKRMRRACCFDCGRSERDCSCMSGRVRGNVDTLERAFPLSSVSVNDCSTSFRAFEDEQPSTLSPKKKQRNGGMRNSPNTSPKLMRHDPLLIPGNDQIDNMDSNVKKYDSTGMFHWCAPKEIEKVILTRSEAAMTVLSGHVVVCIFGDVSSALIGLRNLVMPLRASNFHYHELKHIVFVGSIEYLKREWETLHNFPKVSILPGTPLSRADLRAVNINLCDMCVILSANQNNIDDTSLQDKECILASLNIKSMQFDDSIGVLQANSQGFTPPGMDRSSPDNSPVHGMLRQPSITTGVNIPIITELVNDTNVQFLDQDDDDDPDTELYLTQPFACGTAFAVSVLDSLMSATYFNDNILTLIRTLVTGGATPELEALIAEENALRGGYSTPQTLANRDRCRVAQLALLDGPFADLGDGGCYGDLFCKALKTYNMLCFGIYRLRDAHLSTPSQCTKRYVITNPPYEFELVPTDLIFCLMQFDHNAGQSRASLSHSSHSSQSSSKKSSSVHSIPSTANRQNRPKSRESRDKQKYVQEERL

maximal left-shift for the BK-activation curve (ΔVmax) (fitted to sigmoidal logistic equation): -94 mV
EC50 (ramp -120 to +120 mV, ΔV at control conductance level of +100 mV, read-out: EC50 for the left-shift of the BKca-activation curve): 8.2 µM
Compound: O=C(COc1cccc(Cl)c1)Nc1cc(Cl)ccc1-c1noc(=O)[nH]1 [Compound 8]
